Measurements published in ChEMBL document CHEMBL3817808, “Enlarging the chemical space of anti-leishmanials: a structureactivity relationship study of peptoids against Leishmania mexicana, a causative agent of cutaneous leishmaniasis” (Medchemcomm, 2016).
pEC50: −log10 of the molar value. Non-standard residues stand in square brackets, D forms with d. Residues, ends and D or L forms follow the SMILES beside them. Gly(Nα-4-Cl-benzyl) = O=C(O)CNCc1ccc(Cl)cc1; N(4-F-Bzl)Gly = O=C(O)CNCc1ccc(F)cc1; N(isopentyl)Gly = CC(C)CCNCC(=O)O; Nspe = C[C@H](NCC(=O)O)c1ccccc1; Nleu = CC(C)CNCC(=O)O; NPrGly = CCCNCC(=O)O; Nlys = NCCCCNCC(=O)O

What was measured:
[1] = system: Leishmania mexicana; experiment: Antileishmanial activity against Leishmania mexicana MNYC/BZ/62/M379 promastigotes assessed as parasite viability measured after 1 hr by alamarBlue staining based fluorescence analysis; type: functional; conditions: MNYC/BZ/62/M379, 1 h, read-out: ED50 (the source's name)
[2] = system: Leishmania mexicana; experiment: Antileishmanial activity against axenic amastigote form of Leishmania mexicana MNYC/BZ/62/M379 assessed as parasite viability measured after 1 hr by alamarBlue staining based fluorescence analysis; type: functional; conditions: MNYC/BZ/62/M379, 1 h, read-out: ED50 (the source's name)

| SMILES | pEC50 [1] | pEC50 [2] |
| --- | --- | --- |
| NCCCCNCC(=O)N(CC(=O)N(CC(=O)N(CCCCN)CC(=O)N(CC(=O)N(CC(=O)N(CCCCN)CC(=O)N(CC(=O)N(CC(=O)N(CCCCN)CC(=O)N(CC(=O)N(CC(N)=O)Cc1ccc(Cl)cc1)Cc1ccc(Cl)cc1)Cc1ccc(Cl)cc1)Cc1ccc(Cl)cc1)Cc1ccc(Cl)cc1)Cc1ccc(Cl)cc1)Cc1ccc(Cl)cc1)Cc1ccc(Cl)cc1 (H-[Nlys][Gly(Nα-4-Cl-benzyl)][Gly(Nα-4-Cl-benzyl)][Nlys][Gly(Nα-4-Cl-benzyl)][Gly(Nα-4-Cl-benzyl)][Nlys][Gly(Nα-4-Cl-benzyl)][Gly(Nα-4-Cl-benzyl)][Nlys][Gly(Nα-4-Cl-benzyl)][Gly(Nα-4-Cl-benzyl)]-NH2) | 4.55 | 4.36 |
| NCCCCNCC(=O)N(CC(=O)N(CC(=O)N(CCCCN)CC(=O)N(CC(=O)N(CC(N)=O)Cc1ccc(F)cc1)Cc1ccc(F)cc1)Cc1ccc(F)cc1)Cc1ccc(F)cc1 (H-[Nlys][N(4-F-Bzl)Gly][N(4-F-Bzl)Gly][Nlys][N(4-F-Bzl)Gly][N(4-F-Bzl)Gly]-NH2) | < 4.00 | < 4.00 |
| NCCCCNCC(=O)N(CC(=O)N(CC(=O)N(CCCCN)CC(=O)N(CC(=O)N(CC(=O)N(CCCCN)CC(=O)N(CC(=O)N(CC(N)=O)Cc1ccc(F)cc1)Cc1ccc(F)cc1)Cc1ccc(F)cc1)Cc1ccc(F)cc1)Cc1ccc(F)cc1)Cc1ccc(F)cc1 (H-[Nlys][N(4-F-Bzl)Gly][N(4-F-Bzl)Gly][Nlys][N(4-F-Bzl)Gly][N(4-F-Bzl)Gly][Nlys][N(4-F-Bzl)Gly][N(4-F-Bzl)Gly]-NH2) | 4.72 | < 4.00 |
| NCCCCNCC(=O)N(CC(=O)N(CC(=O)N(CCCCN)CC(=O)N(CC(=O)N(CC(=O)N(CCCCN)CC(=O)N(CC(=O)N(CC(=O)N(CCCCN)CC(=O)N(CC(=O)N(CC(N)=O)Cc1ccc(F)cc1)Cc1ccc(F)cc1)Cc1ccc(F)cc1)Cc1ccc(F)cc1)Cc1ccc(F)cc1)Cc1ccc(F)cc1)Cc1ccc(F)cc1)Cc1ccc(F)cc1 (H-[Nlys][N(4-F-Bzl)Gly][N(4-F-Bzl)Gly][Nlys][N(4-F-Bzl)Gly][N(4-F-Bzl)Gly][Nlys][N(4-F-Bzl)Gly][N(4-F-Bzl)Gly][Nlys][N(4-F-Bzl)Gly][N(4-F-Bzl)Gly]-NH2) | 4.82 | 4.12 |
| CC(C)CCN(CC(=O)N(CC(N)=O)[C@@H](C)c1ccccc1)C(=O)CN(CCCCN)C(=O)CN(C(=O)CN(CCC(C)C)C(=O)CNCCCCN)[C@@H](C)c1ccccc1 (H-[Nlys][N(isopentyl)Gly][Nspe][Nlys][N(isopentyl)Gly][Nspe]-NH2) | < 4.00 | < 4.00 |
| CCCN(CC(=O)N(CC(N)=O)[C@@H](C)c1ccccc1)C(=O)CN(CCCCN)C(=O)CN(C(=O)CN(CCC)C(=O)CNCCCCN)[C@@H](C)c1ccccc1 (H-[Nlys][NPrGly][Nspe][Nlys][NPrGly][Nspe]-NH2) | < 4.00 | < 4.00 |
| CCCN(CC(=O)N(CC(N)=O)[C@@H](C)c1ccccc1)C(=O)CN(CCCCN)C(=O)CN(C(=O)CN(CCC)C(=O)CN(CCCCN)C(=O)CN(C(=O)CN(CCC)C(=O)CNCCCCN)[C@@H](C)c1ccccc1)[C@@H](C)c1ccccc1 (H-[Nlys][NPrGly][Nspe][Nlys][NPrGly][Nspe][Nlys][NPrGly][Nspe]-NH2) | < 4.00 | < 4.00 |
| CCCN(CC(=O)N(CC(N)=O)[C@@H](C)c1ccccc1)C(=O)CN(CCCCN)C(=O)CN(C(=O)CN(CCC)C(=O)CN(CCCCN)C(=O)CN(C(=O)CN(CCC)C(=O)CN(CCCCN)C(=O)CN(C(=O)CN(CCC)C(=O)CNCCCCN)[C@@H](C)c1ccccc1)[C@@H](C)c1ccccc1)[C@@H](C)c1ccccc1 (H-[Nlys][NPrGly][Nspe][Nlys][NPrGly][Nspe][Nlys][NPrGly][Nspe][Nlys][NPrGly][Nspe]-NH2) | < 4.00 | < 4.00 |
| CC(C)CN(CC(=O)N(CC(N)=O)[C@@H](C)c1ccccc1)C(=O)CN(CCCCN)C(=O)CN(C(=O)CN(CC(C)C)C(=O)CNCCCCN)[C@@H](C)c1ccccc1 (H-[Nlys][Nleu][Nspe][Nlys][Nleu][Nspe]-NH2) | < 4.00 | < 4.00 |
